These are literature values, as cited in PMC11881343, “Safety of ilunocitinib tablets (Zenrelia™) after once daily oral administration in dogs” (BMC Veterinary Research, 2025).

Data set [1] has as its system dogs. The following applies: cited from earlier work.
In data set [2] the test system is JAK3. Further details: method as in PMID 32413585. As to conditions: cited from earlier work.
Data set [3] concerns peripheral blood leukocytes. The following applies: rheumatoid arthritis patients in phase III clinical trials; cited from earlier work.
Data set [4] concerns human patients with rheumatoid arthritis. Further details: method as in PMID 31362993. The following applies: human medicine; cited from earlier work.

For `CNS(=O)(=O)C[C@H]1CC[C@H](N(C)c2ncnc3[nH]ccc23)CC1` [oclacitinib], the “Weight gain in dogs” value in data set [1] (dogs) is “Weight gain has been reported”. For the same compound, the Papillomas in dogs result in data set [1] (resorbed spontaneously) is recorded as “Papillomas were also observed”.

For `CCS(=O)(=O)N1CC(CC#N)(n2cc(-c3ncnc4[nH]ccc34)cn2)C1` [baricitinib], the “potency against JAK3” value in data set [2] is “significantly lower potency against JAK3”. Besides, the “changes in lymphocytes subsets populations” value in data set [3] is “minimal and reversible changes”. The effect on hemoglobin result in data set [4] is reported as “initial decrease in hemoglobin within the normal range followed by a slight increase”.

`CC[C@@H]1CN(C(=O)NCC(F)(F)F)C[C@@H]1c1cnc2cnc3[nH]ccc3n12` [upadacitinib]: the effect on hemoglobin entry in data set [4] was “limited impact on hemoglobin”.
